The source of these data is patent publication US6251861A, “Treatment of cerebral infarction using cyclic hexapeptides” (Takeda Chemical Industries, Ltd., priority 1996, dated 2001).

The subject of experiment [1] is endothelin A receptor / endothelin B receptor / endothelin converting enzyme. The note with it: ETA: endothelin A receptor; ETB: endothelin B receptor; ECE: endothelin converting enzyme (inhibition); from the literature cited in the tables; cited from earlier work.
In experiment [2] the test system is total brain infarct models (gerbils, bilateral common carotid arteries obstructed for 15 minutes). As to the kind of experiment: Total brain infarct model, survival (Test Example 2). It counts as in vivo, gerbil. Conditions: 3 mg/kg intraperitoneally twice (60 min before obstruction, 90 min after reperfusion), n=11, vehicle group 0%, p<0.05. The protocol: Mature male gerbils were divided into 2 groups and total brain infarct models were constructed by obstructing the bilateral common carotid arteries for 15 minutes (Nagisa et al., Basic Pharmacology & Therapeutics,23, 103-108, 1995). Control saline (vehicle) (Group A) and compound 2 (3 mg/kg) (Group B) were administered intraperitoneally twice, namely 60 minutes before obstruction and 90 minutes after reperfusion and the survival rates at 8 hours following reperfusion were compared between the groups. Intergroup comparison was made by ANOVA test (one-way analysis of variance).

As to `Cc1cc(C)cc(C(=O)N(C)[C@H](Cc2ccc(-c3ccsc3)cc2)C(=O)N[C@@H](Cc2c[nH]c3ccccc23)C(=O)O)c1` [IRL2659, N-(3,5-dimethylbenzoyl)-N-methyl-(D)-[4-(3-thienyl)-phenyl]-alanyl-L-tryptophan], the Selectivity result in experiment [1] is reported as “ETB”.

Turning to `COc1ccc(C(=O)C(Cc2ccccc2)=C(C(=O)O)c2ccc3c(c2)OCO3)cc1` [PD155080, 2-benzo(1,3)dioxol-5-yl-3-benzyl-4-(4-methoxyphenyl)-4-oxobut-2-enoate], the Selectivity result in experiment [1] was “ETA”.

As for “Ac-D-Bhg-Leu-Asp-Ile-Ile-Trp.2Na [PD145065]”, in experiment [1], the Selectivity result is “ETA/ETB”.

With `COc1ccc(-c2nc(NS(=O)(=O)c3ccc(C(C)(C)C)cc3)c(Oc3ccccc3OC)c(OC[C@@H](O)CO)n2)cc1` [Ro46-8443, 4-tert-butyl-N-[(S)6-(2,3-dihydroxypropoxy)-5-(2-methoxyphenoxy)-2-(4-methoxyphenyl)-pyrimidin-4-yl]-benzene sulphonamide], the Selectivity result in experiment [1] is recorded as “ETB”.

`COc1ccc(C(=O)C(Cc2cc(OC)c(OC)c(OC)c2)=C(C(=O)O)c2ccc3c(c2)OCO3)cc1` [PD156707, 2-benzo(1,3)dioxol-5-yl-4-(4-methoxyphenyl)-4-oxo-3-(3,4,5-trimethoxybenzyl)-but-2-enoate]: the Selectivity result in experiment [1] is listed as “ETA”.

With `COc1ccccc1Oc1c(NS(=O)(=O)c2ccc(C(C)(C)C)cc2)nc(-c2ncccn2)nc1OCCO` [compound 2, 4-Tert-butyl-N-[6-(2-hydroxyethoxy)-5-(2-methoxyphenoxy)-2,2'-bipyrimidin-4-yl]-benzene sulfonamide], the “survival rate at 8 hours after reperfusion” value in experiment [2] was 36%. Besides, the Selectivity entry in experiment [1] was “ETA/ETB”.

In the case of `Cc1cc(C)cc(C(=O)N(C)[C@H](Cc2ccc(-c3ccccc3)cc2)C(=O)N[C@@H](Cc2c[nH]c3ccccc23)C(=O)O)c1` [IRL2500, N-(3,5-dimethylbenzoyl)-N-methyl-(D)-[(4-phenyl)-phenyl]-alanyl-L-tryptophan], the Selectivity entry in experiment [1] is reported as “ETB”.

`CCCOc1cccc(CC(C(=O)c2ccc(OC)cc2)=C(C(=O)O)c2ccc3c(c2)OCO3)c1` [PD155719, 2-(1,3-benzodioxol-5-yl)-4-(4-methoxyphenyl)-4-oxo-3[(3-propoxyphenyl)methyl]-2-butenoic acid]: the Selectivity entry in experiment [1] was “ETA”.

On to `O=P(O)(O)CN[C@@H](Cc1ccc(-c2ccccc2)cc1)c1nnn[nH]1` [CGS-26303, (S)-2-diphenyl-4-yl-1-(1H-tetrazol-5-yl)-ethylaminomethyl phosphonic acid], for which, in experiment [1], the Selectivity result was “ECE”.

Regarding “Ac-D-Dip-Leu-Asp-Ile-Ile-Trp.2Na [PD142893]”, the Selectivity entry in experiment [1] is listed as “ETA/ETB”.

As to “Dmpc-.tau.-MeLeu-D-Trp(1-CO2 CH3)-D-Nle-OH [BQ-788]”, in experiment [1], the Selectivity entry was “ETB”.

On to `CCCc1cc(C(=O)O)ccc1OC(C(=O)NS(=O)(=O)c1ccc(C(C)C)cc1)c1ccc2c(c1)OCO2` (racemic) [L-749329, (±)N-(4-isopropylbenzenesulphonyl)-α-(4-carboxy-2-n-propylphenoxy)-3,4-methylene dioxyphenyl acetamide], for which the Selectivity result in experiment [1] was “ETA”.

With `O=P(CN[C@@H](Cc1ccc(-c2ccccc2)cc1)c1nnn[nH]1)(Oc1ccccc1)Oc1ccccc1` [CGS-26393, diphenyl[(S)-2-diphenyl-4-yl-1-(1H-tetrazol-5-yl)-ethylamino-methyl] phosphonate], the Selectivity result in experiment [1] was “ECE”.

As to `COc1cccc(Oc2c(NS(=O)(=O)c3ccc(C(C)(C)C)cc3)ncnc2OCCO)c1` [Ro46-2005, 4-tert-butyl-N-[6-(2-hydroxyethoxy)-5-(3-methoxyphenoxy)-4-pyrimidinyl]-benzenesulphonamide], the Selectivity entry in experiment [1] is on record as “ETA/ETB”.

For `CC(C)C[C@H](NP(=O)(O)CCc1ccc2ccccc2c1)C(=O)N[C@@H](Cc1c[nH]c2ccccc12)C(=O)O` [N-2-(2-naphthyl)ethyl-phosphonyl-L-Leu-L-Trp], the Selectivity result in experiment [1] is on record as “ECE”.

Take `COc1cc(C2=C(CC3CCCCC3)C(O)(c3ccc4c(c3)OCCO4)OC2=O)cc2c1OCO2` (centres unmarked) [PD160874, 4-cryclohexyl-methyl-5-[2,3-dihydro-benzo(1,4)dioxin-6-yl]-5-hydroxy-3-[7-methoxybenzo(1,3)-dioxol-5-yl]-5H-furan-2-one]: the Selectivity result in experiment [1] is “ETA/ETB”.

On to `CC(C)C[C@H](NC(=O)N1CCCCCC1)C(=O)NC(Cc1cn(C)c2ccccc12)C(=O)N[C@H](Cc1ccccn1)C(=O)O` (stereo partly drawn) [FR139317, (R)-2-{(S)-2-([1-{hexahydro-1H-azepinyl}carbonyl]-amino-methyl-pentamoyl)}-amino-3-(3[1-methyl-1H-indolyl])propionylamino-3-(2-pyridyl)propionic acid], for which the Selectivity entry in experiment [1] was “ETA”.

For “27-O-3-[2-(3-carboxy-acryloylamino)-5-hydroxyphenyl]-acryloyloxy myricerone, sodium salt [97-139]”, the Selectivity entry in experiment [1] is “ETA”.

As to `COC(=O)c1cc(O)cc(OC)c1Oc1cc(C)cc(O)c1C(=O)O` [Asterric acid], the Selectivity result in experiment [1] was “ETA”.

For the molecule “cys(D-Sal-L-Pro-D-Val-L-Leu-D-Trp) [BQ-153]”, the Selectivity result in experiment [1] is recorded as “ETA”.

With `CC(C)C[C@H](NP(=O)(O)O[C@@H]1O[C@@H](C)[C@H](O)[C@@H](O)[C@H]1O)C(=O)N[C@@H](Cc1c[nH]c2ccccc12)C(=O)O` [Phosphoramidon, N-phosphonyl L-Leu-L-Trp], the Selectivity result in experiment [1] is “ECE”.

Turning to `CCCc1cc(C(=O)O)ccc1OC(C(=O)NS(=O)(=O)c1ccc(C(C)C)cc1)c1ccc2c(c1)OCO2` (single isomer, unassigned; (-)) [L-754142, (-)N-(4-isopropylbenzenesulphonyl)-α-(4-carboxy-2-n-propylphenoxy)-3,4-methylene dioxyphenyl acetamide], the Selectivity result in experiment [1] is “ETA”.

Regarding cyc(D-Trp-D-Asp-Pro-D-Val-Leu) [BQ-123], the Selectivity entry in experiment [1] is reported as “ETA”.

Regarding `CC(=O)NC(CSC12CCC3(O)CC(C)=CC(=O)C3(O)C1(O)C(=O)c1cccc(O)c1C2=O)C(=O)O` (centres unmarked) [WS009A, 2-acetamido-3-[[1,4,4a,5,6,6a,7,12,12a,12b-decahydro-4a,8,12a,12b-tetra-hydroxy-3-methyl-1,7,12-trioxobenz[a]anthracen-6a-yl]-thio]propionic acid], the Selectivity entry in experiment [1] is recorded as “ETA”.

On to `CCCc1cc(C(=O)OC)ccc1CC(C(=O)NS(=O)(=O)c1ccc(C(C)C)cc1)c1ccc2c(c1)OCO2` (racemic) [L-751281, (±)N-[2-(3,4-methylenedioxyphenyl)-3-(4-carbomethoxy-2-propylphenyl)-propanoly]-4-(isopropyl)benzene sulphonamide], for which the Selectivity entry in experiment [1] is on record as “ETA”.

As for “[Cys^11 -Cys^15 ]-ET-1(11-21) [IRL-1038]”, the Selectivity entry in experiment [1] is “ETB”.

`CCCOc1ccc2c(c1)[C@@H](c1ccc(OC)cc1OCCO)[C@H](C(=O)O)[C@H]2c1ccc2c(c1)OCO2` [SB-217242, (+)-(1S,2R,3S)-3-[2-(2-hydroxyeth-1-yloxy)-4-methoxyphenyl]-1-(3,4-methylenedioxyphenyl)-5-(prop-1-yloxy)indan-2-carboxylic acid]: in experiment [1], the Selectivity entry is given as “ETA/ETB”.

On to `CC1(C)CC[C@]2(C(=O)O)CC[C@]3(COC(=O)/C=C/c4ccc(O)c(O)c4)C(=CC[C@@H]4[C@@]5(C)CCC(=O)C(C)(C)[C@@H]5CC[C@]43C)[C@@H]2C1` [50-235, 27-O-caffeoyl myricerone], for which, in experiment [1], the Selectivity result is on record as “ETA”.

Turning to `CCCCCOc1c(OC)cc(CC2=C(c3ccc4c(c3)OCO4)C(=O)OC2(O)c2ccc(OC)cc2)cc1OC` (centres unmarked) [PD160672, 3-benzo(1,3)dioxol-5-yl-(3,5-dimethoxy-4-pentyloxybenzyl)-5-hydroxy-5-(4-methoxyphenyl)-5H-furan-2-one], in experiment [1], the Selectivity entry is “ETA/ETB”.

As to `Cc1noc(NS(=O)(=O)c2cccc3c(N(C)C)cccc23)c1C` [BMS-182874, 5-(dimethylamino)-N-(3,4-dimethyl-5-isoxazolyl)-1-naphthalene sulphonamide], the Selectivity result in experiment [1] is “ETA”.

On to `Cc1cc(C)cc(C(=O)N(C)[C@H](Cc2ccc(-c3ccno3)cc2)C(=O)N[C@@H](Cc2c[nH]c3ccccc23)C(=O)O)c1` [IRL2796, N-(3,5-dimethylbenzoyl)-N-methyl-(D)-[4-(5-isoxazolyl)-phenyl]-alanyl-L-tryptophan], for which the Selectivity entry in experiment [1] is reported as “ETB”.

For `CC(C)C[C@H](NC(=O)N1CCCCCC1)C(=O)N[C@H](Cc1cn(C)c2ccccc12)C(=O)N[C@H](Cc1ccc(O)cc1)C(=O)O` [PD151242, (N-[(hexahydro-1-azepinyl)carbonyl])-L-Leu(1-Me)D-Trp-D-Tyr], the Selectivity entry in experiment [1] is on record as “ETA”.

Turning to “cyc(Gly-Asn-Trp-His-Gly-Thr-Ala-Pro-Asp)-Trp-Phe-Asn-Tyr-Tyr-Trp [RES-7011]”, the Selectivity entry in experiment [1] was “ETB”.

Consider `CC(C)C[C@H](NP(=O)(O)CC(O)CO)C(=O)N[C@@H](Cc1c[nH]c2ccccc12)C(=O)[O-].CC(C)C[C@H](NP(=O)(O)CC(O)CO)C(=O)N[C@@H](Cc1c[nH]c2ccccc12)C(=O)[O-].[Na+].[Na+]` (stereo partly drawn) [S-17162, N-(2,3 dihydroxy propyl phosphonyl)-(S)-Leu-(S)-Trp-OH, disodium salt], for which, in experiment [1], the Selectivity result is recorded as “ECE”.
